Publication PMC9611727, “Optimization of a Novel Mandelamide-Derived Pyrrolopyrimidine Series of PERK Inhibitors” (Pharmaceutics, 2022)
Read-outs that look alike come from different tables or passages of the source.

How the values were obtained:
PERK = molecular target: T1, PERK (Homo sapiens, UniProt Q9NZJ5); assay: PERK biochemical LanthaScreen TR-FRET assay (GFP-eIF2a phosphorylation)
T1 sequence (Q9NZJ5 30-1116): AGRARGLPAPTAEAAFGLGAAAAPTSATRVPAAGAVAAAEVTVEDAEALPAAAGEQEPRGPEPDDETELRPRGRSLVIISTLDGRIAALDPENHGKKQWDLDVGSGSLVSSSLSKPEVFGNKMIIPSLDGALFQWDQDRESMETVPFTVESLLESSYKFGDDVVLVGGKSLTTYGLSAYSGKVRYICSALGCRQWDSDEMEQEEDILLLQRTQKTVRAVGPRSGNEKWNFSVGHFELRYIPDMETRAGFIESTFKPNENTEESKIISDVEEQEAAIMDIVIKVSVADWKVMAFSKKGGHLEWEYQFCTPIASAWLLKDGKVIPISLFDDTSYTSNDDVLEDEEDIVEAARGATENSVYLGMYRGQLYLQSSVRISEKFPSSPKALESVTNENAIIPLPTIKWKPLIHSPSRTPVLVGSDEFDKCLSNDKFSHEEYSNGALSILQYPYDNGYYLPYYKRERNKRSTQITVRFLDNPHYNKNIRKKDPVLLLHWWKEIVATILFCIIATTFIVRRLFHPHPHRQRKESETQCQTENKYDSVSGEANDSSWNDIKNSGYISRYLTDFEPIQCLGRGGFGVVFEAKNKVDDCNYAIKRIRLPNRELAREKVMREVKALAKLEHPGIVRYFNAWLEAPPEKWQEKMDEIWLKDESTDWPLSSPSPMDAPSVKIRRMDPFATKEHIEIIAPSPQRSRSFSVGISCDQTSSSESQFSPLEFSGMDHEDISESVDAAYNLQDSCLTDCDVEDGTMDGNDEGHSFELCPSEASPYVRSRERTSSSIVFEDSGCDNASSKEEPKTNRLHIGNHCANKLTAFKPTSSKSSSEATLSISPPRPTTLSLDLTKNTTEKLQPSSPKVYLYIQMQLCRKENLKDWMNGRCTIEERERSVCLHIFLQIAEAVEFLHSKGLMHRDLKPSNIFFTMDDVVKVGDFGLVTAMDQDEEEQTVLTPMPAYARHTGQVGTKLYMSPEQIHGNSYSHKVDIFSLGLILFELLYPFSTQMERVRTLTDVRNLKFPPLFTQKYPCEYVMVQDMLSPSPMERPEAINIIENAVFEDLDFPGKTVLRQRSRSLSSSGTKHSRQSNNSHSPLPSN
Experimental: Methods used to evaluate biochemical PERK activity are described and published elsewhere. In brief, biochemical PERK activity is evaluated using a LanthaScreenTM ([…]) TR-FRET assay to detect phosphorylation of a GFP-tagged eIF2a substrate (ThermoFisher). Excitation at […] of a terbium chelate donor fluorophore in an eIF2a antibody results in energy transfer to GFP acceptor fluorophore upon eIF2a phosphorylation by PERK. Reaction buffer was composed of 50 mM HEPES (pH 7.4), 10 mM MgCl2, 1 mM EGTA and 0.01% (v/v) BrijTM-35. Reactions were initiated by the addition of substrate and ATP, followed by incubation for 1 h at RT prior to addition of EDTA and the anti-peIF2a antibody. FRET was measured by an EnVision Plate Reader (PerkinElmer). Data were plotted as percent inhibition along a 10-point 3-fold dilution series of inhibitors. IC50 values were calculated using 4-parameter logistical fitting in XLFit.
(§1) The PERK activity of analog I was evaluated using cell-free biochemical assays. In these assays, PERK phosphorylation of eIF2a was assessed using a FRET-based labelled protein assay. Compounds were then evaluated for cellular activity by quantifying inhibition of eIF2a phosphorylation in HEK293 cells treated with the ER inducer tunicamycin [7].

p-eIF2α = assay: Cellular PERK inhibition: p-eIF2a TR-FRET in tunicamycin-treated HEK293-EGFP-eIF2a cells; type: cell-based
Experimental: Methods used to evaluate in vitro cellular PERK inhibition are described and published elsewhere. In brief, stableHEK293 cells were created using lentiviral particles harboring a GFP-eIF2a expression vector. Transfectants were selected by puromycin and enriched using fluorescent cell sorting based on GFP expression. HEK293-EGFP-eIF2a cells were plated at 5000 cells/well in 384-well assay plates and incubated overnight. The following day, pyrrolopyrimidine analogs were added to wells using an Echo acoustic dispenser and incubated for 30 min. ER stress was induced by the addition of tunicamycin to the wells at […] for 2 h. Cells were lysed and peIF2a was evaluated using a TR-FRET system, as described above.
as §1

[1] = cell-free TR-FRET, GFP-eIF2a substrate, read-out: PERK IC50
[2] = Homo sapiens, HEK293 cells, tunicamycin-induced ER stress, read-out: p-eIF2α IC50
[3] = bound stated, read-out: biochemical potency
[4] = bound stated, read-out: cellular potency

| Compound | IC50 (PERK; [1]) [nM] | IC50 (p-eIF2α; [2]) [nM] | IC50 (PERK; [3]) [nM] | IC50 (p-eIF2α; [4]) [nM] |
| --- | --- | --- | --- | --- |
| Cc1cc(NC(=O)[C@@H](O)c2cccc(F)c2)ccc1-c1cn(C)c2ncnc(N)c12 [Compound 12, (S)-N-(4-(4-amino-7-methyl-7H-pyrrolo[2,3-d]pyrimidin-5-yl)-3-methylphenyl) -2-(3-fluorophenyl) -2-hydroxyacetamide] | 7.8 | 57 |  |  |
| Cc1cc(NC(=O)[C@H](O)c2ccccc2)ccc1-c1cn(C)c2ncnc(N)c12 [Compound 13] | 1.8 | 23 |  |  |
| Cc1cc(NC(=O)Cc2ccccc2)ccc1-c1cn(C)c2ncnc(N)c12 [Compound 14] | 5.2 | 41 |  |  |
| Cc1cc(NC(=O)CCc2ccccc2)ccc1-c1cn(C)c2ncnc(N)c12 [Compound 15] | 126 | 1930 |  |  |
| Cc1cc(NC(=O)c2ccccc2)ccc1-c1cn(C)c2ncnc(N)c12 [Compound 16] | 168 | 3960 |  |  |
| Cc1cc(NC(=O)C(F)(F)c2ccccc2)ccc1-c1cn(C)c2ncnc(N)c12 [Compound 17] | 300 | 532 |  |  |
| Cc1cc(NC(=O)Oc2ccccc2)ccc1-c1cn(C)c2ncnc(N)c12 [Compound 18] | 3980 | > 10000 |  |  |
| Cc1cc(NC(=O)Nc2ccccc2)ccc1-c1cn(C)c2ncnc(N)c12 [Compound 19] | 21 | 211 |  |  |
| Cc1cc(NC(=O)N(C)c2ccccc2)ccc1-c1cn(C)c2ncnc(N)c12 [Compound 20] | 108 | 1750 |  |  |
| CO[C@@H](C(=O)Nc1ccc(-c2cn(C)c3ncnc(N)c23)c(C)c1)c1ccccc1 [Compound 21] | 14 | 174 |  |  |
| Cc1cc(NC(=O)C(C)(O)c2ccccc2)ccc1-c1cn(C)c2ncnc(N)c12 (stereo not drawn) [Compound 22] | 56 | 184 |  |  |
| Cc1cc(NC(=O)[C@H](N)c2ccccc2)ccc1-c1cn(C)c2ncnc(N)c12 [Compound 23] | 33 | 581 |  |  |
| Cc1nc(N)c2c(-c3ccc(NC(=O)[C@H](O)c4ccccc4F)cc3C)cn(C)c2n1 [Compound 25] | 102 | 303 |  |  |
| Cc1nc(N)c2c(-c3ccc(NC(=O)C(O)c4ccccc4C(F)(F)F)cc3C)cn(C)c2n1 (stereo not drawn) [Compound 27] | 343 | 2050 |  |  |
| Cc1nc(N)c2c(-c3ccc(NC(=O)[C@H](O)c4ccccc4Cl)cc3C)cn(C)c2n1 [Compound 29] | 107 | 713 |  |  |
| Cc1cccc([C@@H](O)C(=O)Nc2ccc(-c3cn(C)c4nc(C)nc(N)c34)c(C)c2)c1 [Compound 30] | 14 | 83 |  |  |
| Cc1nc(N)c2c(-c3ccc(NC(=O)C(O)c4ccccc4C)cc3C)cn(C)c2n1 (stereo not drawn) [Compound 31] | 26 | 122 |  |  |
| C#Cc1cccc([C@@H](O)C(=O)Nc2ccc(-c3cn(C)c4nc(C)nc(N)c34)c(C)c2)c1 [Compound 32] | 3 | 7.8 |  |  |
| Cc1nc(N)c2c(-c3ccc(NC(=O)[C@H](O)c4cccc(Br)c4)cc3C)cn(C)c2n1 [Compound 33] | 3 | 14 |  |  |
| Cc1nc(N)c2c(-c3ccc(NC(=O)[C@H](O)c4cccc(C(F)F)c4)cc3C)cn(C)c2n1 [Compound 34] | 5.9 | 21 |  |  |
| Cc1nc(N)c2c(-c3ccc(NC(=O)[C@H](O)c4cccc(C5CC5)c4)cc3C)cn(C)c2n1 [Compound 35] | 5.9 | 17 |  |  |

| Compound | IC50 (PERK; [1]) [nM] | IC50 (p-eIF2α; [2]) [nM] | IC50 (PERK; [3]) [nM] | IC50 (p-eIF2α; [4]) [nM] |
| --- | --- | --- | --- | --- |
| Cc1nc(N)c2c(-c3ccc(NC(=O)[C@H](O)c4cccc(C#N)c4)cc3C)cn(C)c2n1 [Compound 36] | 8 | 325 |  |  |
| Cc1nc(N)c2c(-c3ccc(NC(=O)[C@H](O)c4cccc(S(C)(=O)=O)c4)cc3C)cn(C)c2n1 [Compound 37] | > 1000 | > 10000 |  |  |
| Cc1nc(N)c2c(-c3ccc(NC(=O)[C@H](O)c4cc(F)cc(Cl)c4)cc3C)cn(C)c2n1 [Compound 40] | 2.9 | 8.5 |  |  |
| Cc1nc(N)c2c(-c3ccc(NC(=O)[C@H](O)c4cc(F)cc(C#N)c4)cc3C)cn(C)c2n1 [Compound 42] | 4.2 | 32 |  |  |
| Cc1nc(N)c2c(-c3ccc(NC(=O)[C@H](O)c4cncc(F)c4)cc3C)cn(C)c2n1 [Compound 43] | 52 | 562 |  |  |
| Cc1nc(N)c2c(-c3ccc(NC(=O)[C@H](O)c4cncc(Cl)c4)cc3C)cn(C)c2n1 [Compound 44] | 17 | 129 |  |  |
| Cc1nc(N)c2c(-c3ccc(NC(=O)[C@H](O)c4cncc(C(F)(F)F)c4)cc3C)cn(C)c2n1 [Compound 45] | 19 | 165 |  |  |
| Cc1nc(N)c2c(-c3ccc(NC(=O)[C@H](O)c4cccc(F)c4)cc3F)cn(C)c2n1 [Compound 46] | 2.2 | 41 |  |  |
| Cc1nc(N)c2c(-c3ccc(NC(=O)[C@H](O)c4cccc(C(F)(F)F)c4)cc3F)cn(C)c2n1 [Compound 47, (R)-N-(4-(4-amino-2,7-dimethyl-7H-pyrrolo[2,3-d]pyrimidin-5-yl)-3-fluorophenyl)-2-hydroxy-2-(3-(trifluoromethyl)phenyl)acetamide] | 5.1 | 11 | < 5 | < 15 |
| Cc1cccc([C@@H](O)C(=O)Nc2ccc(-c3cn(C)c4nc(C)nc(N)c34)c(F)c2)c1 [Compound 49] | 1.1 | 17 |  |  |
| CCc1cccc([C@@H](O)C(=O)Nc2ccc(-c3cn(C)c4nc(C)nc(N)c34)c(F)c2)c1 [Compound 50] | 0.9 | 25 |  |  |
| Cc1nc(N)c2c(-c3ccc(NC(=O)[C@H](O)c4cc(F)cc(C(F)(F)F)c4)cc3F)cn(C)c2n1 [Compound 51] | 2.7 | 62 |  |  |
| Cc1cc(F)cc([C@@H](O)C(=O)Nc2ccc(-c3cn(C)c4nc(C)nc(N)c34)c(F)c2)c1 [Compound 52] | 1.1 | 11 | < 5 | < 15 |
| Cc1nc(N)c2c(-c3ccc(NC(=O)[C@H](O)c4cccc(F)c4)cc3Cl)cn(C)c2n1 [Compound 53] | 17 | 56 |  |  |
| Cc1nc(N)c2c(-c3ccc(NC(=O)[C@H](O)c4cccc(C(F)(F)F)c4)cc3Cl)cn(C)c2n1 [Compound 54] | 2.7 | 21 |  |  |
| Cc1nc(N)c2c(-c3ccc(NC(=O)[C@H](O)c4cccc(Cl)c4)cc3Cl)cn(C)c2n1 [Compound 55] | 1.6 | 17 |  |  |
| Cc1cccc([C@@H](O)C(=O)Nc2ccc(-c3cn(C)c4nc(C)nc(N)c34)c(Cl)c2)c1 [Compound 56] | 4.1 | 18 |  |  |
| CCc1cccc([C@@H](O)C(=O)Nc2ccc(-c3cn(C)c4nc(C)nc(N)c34)c(Cl)c2)c1 [Compound 57] |  | 14 | < 5 | < 15 |
| Cc1nc(N)c2c(-c3ccc(NC(=O)[C@H](O)c4cccc(F)c4)cc3C(F)(F)F)cn(C)c2n1 [Compound 58] | 8.5 | 204 |  |  |
| CCc1cc(NC(=O)[C@H](O)c2cccc(F)c2)ccc1-c1cn(C)c2nc(C)nc(N)c12 [Compound 59] | 4 | 41 |  |  |
